Data set [1] concerns TOPFlash Wnt reporter activity. Put plainly: TOPFlash Wnt reporter assay in HEK293-TOP cells. Format: cell-based. The note with it: 18 hours, FIG. 4D. On the procedure:
Reporter assay. HEK293-TOP cells were seeded into each well of a 24-well plate. The cells were treated with individual compounds at indicated concentration and cultured for 18 hours. The cells were then harvested and lysed in 60 μl of Reporter Lysis Buffer (Promega, Madison, Wis.) according to the manufacturer's instructions. After centrifugation, 20 μl of the supernatant was used to measure luciferase activity. Relative luciferase activities were normalized to that of the DMSO-treated control.
(A reporter such as luciferase makes a cellular process visible.)

Data set [2] is described as follows: Toxicity observation during 10 weeks of treatment in mice. Format: in vivo. On the procedure:
Animals. Cxxc5^−/− mice were established in a previous study. See e.g., Kim H. Y. et al. (2015), CXXC5 is a negative feedback regulator of the Wnt/beta-catenin pathway involved in osteoblast differentiation. CELL DEATH DIFFER 22: 912-920. To manipulate growth plate senescence by estrogen, 3-week-old […] Cxxc5^−/− male mice received weekly intramuscular (i.m.) injections of either 70 μg/kg estradiol (E2) cypionate (Sigma-Aldrich) or vehicle (cottonseed oil) for 3 weeks. To investigate the effects of KY19382 treatment on longitudinal bone growth, C57BL/6 male mice were purchased from KOATECH (Gyeonggido, Korea). KY19382 (0.1 ing/kg) was administered daily by intraperitoneal (i.p.) injection to 3- and 7-week-old mice for 2 weeks or to 3-week-old mice for 10 weeks. For BrdU labeling experiments, mice were i.p. injected with 50 mg/kg BrdU (Sigma-Aldrich) before 24 hours to sacrifice. […]
Radiographic and histochemical analyses. […] For fluorescence staining, the sections were incubated with primary antibody at 4° C. overnight, followed by incubation with anti-mouse Alexa Fluor 488 (ThermoFisher Scientific, A11008; 1:200) or anti-rabbit Alex Fluor 555 (ThermoFisher Scientific, A21428; 1:200) secondary antibodies at room temperature for 1 hour. […]

A short description of data set [3]: In vivo pharmacokinetics of KY19382. The note with it: rat. The arrangement: species or system Sprague-Dawley (SD) rats. On the procedure: In vivo pharmacokinetics of KY19382. Animal studies were approved by the Institutional Animal Care and use committee at KRIBB. Briefly, specific pathogen-free male Sprague-Dawley (SD) rats (10 weeks old, body weight 298-315 g), purchased from Koatech Co. (Kyeonggi, Republic of Korea), were given a single dose of KY19382 intravenously (iv, 1 mg/kg, n=3) or intraperitoneal (ip, 5 mg/kg, n=3). […] A 100 μl aliquot of each plasma sample was prepared, and three volumes of ice-cold acetonitrile containing carbamazepine (internal standard) were added. The mixture was centrifuged at 910 g for 10 min, and the supernatant was subjected to LC-MS/MS analysis. Pharmacokinetic parameters were calculated by standard noncompartmental analysis of plasma concentration-time profiles using Kinetica 4.4.1 (Thermo Fisher Scientific, Inc., Woburn, Mass., USA). The areas under the plasma concentration-time curves (AUC) were calculated by the linear-trapezoidal method. Systemic plasma clearance (CLP) was calculated as follows: CLP=dose/AUCinf. […] Volume of distribution at steady state (VSS) was calculated as follows: VSS=dose×AUMCinf/(AUCinf)2, where AUMCinf is the area under the first moment of the plasma concentration-time curve extrapolated to infinity Bioavailability (F) was calculated as follows: F (%)=(AUCip/AUCiv)(doseiv/doseip)×100.

The mark [4] stands for this setting: male, Sprague-Dawley, plasma, IP, 5 mg/kg, mean.
Setting [5] is: male, Sprague-Dawley, plasma, IV, 1 mg/kg, mean.

The record followed here is patent publication US20210323918A1, “COMPOSITIONS AND METHODS FOR SUPPRESSING AND/OR TREATING A GROWTH RELATED DISEASE AND/OR A CLINICAL CONDITION THEREOF” (CK Biotech Inc., priority 2018, published 2021).

For orientation: bioavailability means dose-corrected exposure relative to a reference, in per cent. Usually AUC(0-t) stands for the area under the concentration-time curve up to a stated or last time point. Lower therefore signals less exposure. The term Cmax denotes the highest concentration seen after dosing. By Tmax is commonly meant the time at which the peak concentration occurs. One may read the half-life as how long it takes for the measured level to halve. Lower therefore signals fast loss. For orientation: clearance means the volume of plasma or blood freed of the substance per unit of time. The low end stands for a low capacity for elimination, the high end for a high capacity for elimination.

Molecules are shown by their SMILES.

With `CO/N=C1/C(=C2/C(=O)Nc3cc(Cl)c(Cl)cc32)Nc2ccccc21` [KY19382, 5,6-dichloroindirubin-3′-methoxime], the “TOPFlash Wnt reporter activity” value in data set [1] is listed as “strong enhancement”. Also, the “histological abnormalities in articular cartilage and liver tissues” value in data set [2] (0.1 mg/kg daily for 10 weeks) was “no histological abnormalities”. Besides, the weight during treatment result in data set [2] (0.1 mg/kg daily, 10 weeks of treatment, vs vehicle) is “no difference”. In data set [3] (IP, 5 mg/kg, mean), the “CL” value was 7.83 mL/min/kg. In data set [3] (male, Sprague-Dawley, plasma, intraperitoneal, IP, 5 mg/kg vs IV, 1 mg/kg), this molecule showed a bioavailability of 16.7%. In data set [3] (setting [4]), the AUC(0-t) came out at 6560 ng·h/mL, the concentration peaked (Cmax) at 463 ng/mL, the time of peak concentration (Tmax) was found to be 1 h and the half-life is 16.2 h. In data set [3] (setting [5]), this molecule gave an AUC(0-t) of 7830 ng·h/mL, a clearance of 2 mL/min/kg and a half-life of 3.33 h. Also, the Vd in data set [3] (male, Sprague-Dawley, plasma, IV, 1 mg/kg, mean, read-out: Vss) stood at 0.33 L/kg.
